Columns and labels:
EGFR(T790M/L858R) = molecular target: T1, EGFR(T790M/L858R) (Homo sapiens, UniProt P00533, L858R/T790M); assay: In vitro non-radioactive kinase assay, EGFR(T790M/L858R) Kinase Assay Kit (BPS Bioscience); assay type: biochemical; conditions: for Activity on mutant EGFR in kinase assay (in words): compared with compound 4, five independent experiments; for IC50: EGFR(T790M/L858R) Kinase Assay Kit, concentration inhibiting 50% enzyme activity, read-out: IC50 (μM) ± Std. Dev.
T1 construct: purchased BPS Bioscience 40322
Experimental: In vitro kinase assays were performed using the EGFR(T790M/L858R) Kinase Assay Kit (BPS
Bioscience, Cat. #40322) in the presenc e of compounds or vehicle . Assays conditions were set
according to the manufacturer’s instructions. Dose -response curves were fitted by non -linear
regression of normalized enzyme activity vs log[inhibitor] data, using GraphPad Prism software. […]

[1] = test system: phospho-EGFR (Tyr1068) in H1975 cells; assay: EGFR phosphorylation by Western blot in H1975 cells; assay type: cell-based; conditions: Western blot after 8-h incubation, 10 µM
Experimental: (§1) Figure 3. Activity of compounds 15 and 18 in H1975 cells. (A) Cell viability was measured by MTS assay. (B) EGFR phosphorylation was assessed by Western blot after 8-h incubation with the compounds (10 µM). Total EGFR and actin are shown for loading control. […]
(§2) 3-nitroaniline 1a (119 mg); 4-fluoro-3-(iminomethyl)phenyl acetate 2h (181 mg); 5-fluoro-2-methyl-1H-indole 3b (149 mg); purification: procedur b, […]
In vitro kinase assays were performed using the EGFR(T790M/L858R) Kinase Assay Kit (BPS Bioscience, Cat. #40322) in the presenc e of compounds or vehicle . Assays conditions were set according to the manufacturer’s instructions. Dose -response curves were fitted by non -linear regression of normalized enzyme activity vs log[inhibitor] data, using GraphPad Prism software.
(§3) For cytotoxicity assays, compounds were added to cells in 96-well plates for 72 hours. Cell viability was measured by MTS assay using the CellTiter 96® AQueous One Solution Cell Proliferation Assay System (Promega, Madison, WI, USA) according to instructions. Inhibition of EGFR was assessed by Western blotting after incubating the cells with the compounds for 8 hours. […]
(§4) Chemiluminescence was detected using a ChemiDoc XRS+ System (Bio-Rad, Hercules, CA, USA) and Image Lab software (Bio-Rad). […]

[2] = test system: H1975 lung cancer cell line expressing the double mutant L858R/T790M EGFR; assay: Cell proliferation / viability by MTS assay in H1975 cells; assay type: cell-based; conditions: 72 hours, micromolar concentrations
Experimental: Compounds 15 and 18 were then tested in cell proliferation assays on the H1975 lung cancer cell line expressing the double mutant L858R/T790M EGFR.
as §1, §2
In vitro kinase assays were performed using the EGFR(T790M/L858R) Kinase Assay Kit (BPS Bioscience, Cat. #40322) in the presenc e of compounds or vehicle . Assays conditions were set according to the manufacturer’s instructions. […]
as §3, §4

[3] = test system: mutant EGFR H1650 cell line; parameters: method as in PMID 29766737; conditions: read-out: IC50 anti-proliferative activity; cited from earlier work
[4] = test system: double mutant H1975 cell line; parameters: method as in PMID 29766737; conditions: read-out: IC50 anti-proliferative activity; cited from earlier work
wt EGFR H1299 cell line = test system: wt EGFR H1299 cell line; parameters: method as in PMID 29766737; conditions: read-out: IC50 anti-proliferative activity; cited from earlier work
[5] = test system: T790M/L858R double mutant EGFR; parameters: method as in PMID 29766737; conditions: type III allosteric inhibitor of T790M/L858R double mutant EGFR; cited from earlier work

Structure (SMILES)	IC50 (EGFR(T790M/L858R)) [µM]	Activity on mutant EGFR in kinase assay (in words) (EGFR(T790M/L858R))	other results
COc1ccc(F)cc1C(Nc1cccc([N+](=O)[O-])c1)c1c(C)[nH]c2ccccc12 (stereo not shown) [Compound 14]		lack of activity	
Cc1[nH]c2ccccc2c1C(Nc1cccc([N+](=O)[O-])c1)c1ncccc1O (stereo not shown) [Compound 12]	96 ± 30		
Cc1[nH]c2ccccc2c1C(Nc1cccc([N+](=O)[O-])c1)c1ccccc1 (stereo not shown) [Compound 13]		lack of activity	
Cc1[nH]c2ccccc2c1C(Nc1cccc([N+](=O)[O-])c1)c1ccccn1 (stereo not shown) [Compound 4]	154 ± 11		IC50 [3]: 19 ± 2 µM; IC50 [4]: 24 ± 2 µM; IC50 (wt EGFR H1299 cell line): 14.5 ± 0.3 µM; EC50 [5]: 6.2 ± 0.5 µM
Cc1[nH]c2ccc(F)cc2c1C(Nc1cccc([N+](=O)[O-])c1)c1ccccn1 (stereo not shown) [Compound 7]	123 ± 17		

The remaining molecules from weak to strong by IC50 (EGFR(T790M/L858R)), led by results:

IC50 (EGFR(T790M/L858R)) [µM]	Structure (SMILES)	Activity on mutant EGFR in kinase assay (in words) (EGFR(T790M/L858R))	other results
95 ± 31	O=[N+]([O-])c1cccc(NC(c2ccccn2)c2c[nH]c3ccccc23)c1 (stereo not shown) [Compound 8]		
63 ± 12	Cc1[nH]c2ccccc2c1C(Nc1cccc([N+](=O)[O-])c1)c1cc(F)ccc1O (stereo not shown) [Compound 17]		
33 ± 4	Cc1[nH]c2ccccc2c1C(Nc1cccc([N+](=O)[O-])c1)c1ccccc1O (stereo not shown) [Compound 15]	significantly improved activity with respect to 4	Inhibition of EGFR phosphorylation (in words) [1]: inhibited; Inhibition of cell proliferation (in words) [2]: inhibited cell proliferation
27 ± 5	Cc1[nH]c2ccccc2c1C(Nc1cccc([N+](=O)[O-])c1)c1cc(O)ccc1F (stereo not shown) [Compound 18]	significantly improved activity with respect to 4	Inhibition of EGFR phosphorylation (in words) [1]: inhibited; Inhibition of cell proliferation (in words) [2]: inhibited cell proliferation

— publication PMC9665079, “Structure-activity exploration of a small-molecule allosteric inhibitor of T790M/L858R double mutant EGFR” (Journal of Enzyme Inhibition and Medicinal Chemistry, 2022)
